In patent publication US20030104489A1, “Functional assay for agonist activation of receptors” (Pfizer Inc., priority 2001, published 2003):

System: D3-G[…]15 cells
Assay: FLIPR assay of intracellular Ca2+ release in D3-Gα15 cells, effect of pre-incubation time at 37 °C (Table 2)
Format: cell-based
Conditions: for Ca2+ response (FLIPR signal), time at 37 °C: 5 min: 5 min pre-incubation at 37 °C; for Ca2+ response (FLIPR signal), time at 37 °C: 5 min / Ca2+ response (FLIPR signal), time at 37 °C: 15 min / % change (elevation of FLIPR signal, 5 min to 15 min pre-incubation at 37 °C): dopamine 100 nM; for Ca2+ response (FLIPR signal), time at 37 °C: 5 min / Ca2+ response (FLIPR signal), time at 37 °C: 15 min: (at or above EC90); for Ca2+ response (FLIPR signal), time at 37 °C: 15 min: 15 min pre-incubation at 37 °C; for % change (elevation of FLIPR signal, 5 min to 15 min pre-incubation at 37 °C): 15 min vs 5 min at 37 °C; for effect of prolonged preincubation at 37 °C on the induced Ca2+ response: ATP via endogenous purinergic receptors, ionomycin as ionophore
Method: The HEK293-Gα15 cell line stably expressing the D3 receptor was used to develop Ca^2+-based assay using the FLIPR-based method. Cells were plated in a 96 or 384 well poly-D lysine-coated FLIPR plates for 16-24 hours before the assay. Cells were loaded with cell dye-media solution (media −11 ml, dye-4 μM Fluo-4 AM, Pluronic® acid 22 ul, probenecid −110 ul of 260 mM solution) for 1 hour at 37° C. The plates were washed in the Skatron Embla™ plate washer with assay buffer (NaCl—0.145M, Glucose—0.01 M, KCl—0.005M, MgSO4—0.001 M, HEPES—0.01 M and CaCl2—0.002M) and stabilized for 30 minutes at 25° C. and 37° C., respectively, before starting the experiment. Antagonists were added 15 minutes prior to the agonist addition. The fluorescence intensities were measured using the excitation and emission wavelengths of 488 nm and 520 nm respectively. Data are taken as the average +S.D. of four replicates.
[…]. The elevation of FLIPR signal (in percentage) in 5 min and 15 min pre-incubation at 37° C. is shown.

Structure (SMILES) | Ca2+ response (FLIPR signal), time at 37 °C: 5 min | Ca2+ response (FLIPR signal), time at 37 °C: 15 min | % change (elevation of FLIPR signal, 5 min to 15 min pre-incubation at 37 °C) [%] | effect of prolonged preincubation at 37 °C on the induced Ca2+ response
C[C@H](CCC(=O)O)C[C@H](C)C[C@H](C)C(=O)/C=C(\O)[C@H](C)C[C@H](C)C/C=C/[C@@H](C)[C@@H](O)[C@@H](C)[C@@H](O)C[C@@H]1CC[C@@](C)([C@H]2CC[C@@](C)([C@@H](C)O)O2)O1 [ionomycin] | 8042 ± 652 | 8465 ± 132 | 5 | not affected
NCCc1ccc(O)c(O)c1 [Dopamine, dopamine] | 157 ± 47 | 550 ± 38 | 257 | –
Nc1ncnc2c1ncn2[C@@H]1O[C@H](COP(=O)(O)OP(=O)(O)OP(=O)(O)O)[C@@H](O)[C@H]1O [ATP] | 2859 ± 630 | 3346 ± 171 | 17 | not affected
